According to patent US20110086759A1, “CHEMICAL COMPOUNDS” (SYNGENTA CROP PROTECTION, INC., priority 2007, published 2011):

Columns and labels:
Assay type in all cases: in vivo
Setaria faberi (SETFA) [1] = assay: Post-emergence biological efficacy, glasshouse pot test; conditions: 312 h
In short: (§1)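 Plants were sown in standard soil and grown 8 days in a glasshouse (24/16° C. day/night, 14 hours light, 65% humidity), then sprayed post-emergence at 1000 or 250 g/ha from acetone/water (50:50) with 0.5% Tween 20. Damage was scored visually after 13 days (0 = none, 100 = total).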

[2] = test system: Amaranthus retoflexus (AMARE); assay: as above; conditions: Amaranthus retroflexus, 312 h
In short: as §1

Solanum nigrum (SOLNI) [3] = assay: as above; conditions: 312 h
In short: as §1

[4] = test system: Echinochloa crus-galli (ECHCG); assay: as above; conditions: 312 h
In short: as §1

[5] = test system: Ipomea hederaceae (IPOHE); assay: as above; conditions: Ipomoea hederacea, 312 h
In short: as §1

[6] = test system: Alopecurus myosuroides (ALOMY); assay: as above; conditions: 312 h
In short: as §1

Setaria faberi (SETFA) [7] = assay: Pre-emergence biological efficacy, glasshouse pot test; conditions: 312 h
In short: (§2)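 One day after seeds were sown in pots, compound was sprayed at 1000 or 250 g/ha. Plants were kept at 24/16 °C with 14 h light and 65% humidity and watered twice daily; damage was graded at day 13 (0 none, 100 total).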

[8] = test system: Amaranthus retoflexus (AMARE); assay: as above; conditions: Amaranthus retroflexus, 312 h
In short: as §2

Solanum nigrum (SOLNI) [9] = assay: as above; conditions: 312 h
In short: as §2

[10] = test system: Echinochloa crus-galli (ECHCG); assay: as above; conditions: 312 h
In short: as §2

[11] = test system: Ipomea hederaceae (IPOHE); assay: as above; conditions: Ipomoea hederacea, 312 h
In short: as §2

[12] = test system: Alopecurus myosuroides (ALOMY); assay: as above; conditions: 312 h
In short: as §2

[13] = Rate 1,000 g/ha, post-emergence spray, evaluated after 13 days (100=total damage to plant; 0=no damage to plant), read-out: Percentage damage caused to weed species, post-emergence, SETFA
[14] = Rate 1,000 g/ha, post-emergence spray, evaluated after 13 days (100=total damage to plant; 0=no damage to plant), read-out: Percentage damage caused to weed species, post-emergence, AMARE
[15] = Rate 1,000 g/ha, post-emergence spray, evaluated after 13 days (100=total damage to plant; 0=no damage to plant), read-out: Percentage damage caused to weed species, post-emergence, SOLNI
[16] = Rate 1,000 g/ha, post-emergence spray, evaluated after 13 days (100=total damage to plant; 0=no damage to plant), read-out: Percentage damage caused to weed species, post-emergence, ECHCG
[17] = Rate 1,000 g/ha, post-emergence spray, evaluated after 13 days (100=total damage to plant; 0=no damage to plant), read-out: Percentage damage caused to weed species, post-emergence, IPOHE
[18] = Rate 1,000 g/ha, post-emergence spray, evaluated after 13 days (100=total damage to plant; 0=no damage to plant), read-out: Percentage damage caused to weed species, post-emergence, ALOMY
[19] = pre-emergence, rate 1,000 g/ha, evaluated after 13 days (100=total damage to plant; 0=no damage), read-out: Percentage damage caused to weed species, SETFA
[20] = pre-emergence, rate 1,000 g/ha, evaluated after 13 days (100=total damage to plant; 0=no damage), read-out: Percentage damage caused to weed species, AMARE
[21] = pre-emergence, rate 1,000 g/ha, evaluated after 13 days (100=total damage to plant; 0=no damage), read-out: Percentage damage caused to weed species, SOLNI
[22] = pre-emergence, rate 1,000 g/ha, evaluated after 13 days (100=total damage to plant; 0=no damage), read-out: Percentage damage caused to weed species, ECHCG
[23] = pre-emergence, rate 1,000 g/ha, evaluated after 13 days (100=total damage to plant; 0=no damage), read-out: Percentage damage caused to weed species, IPOHE
[24] = pre-emergence, rate 1,000 g/ha, evaluated after 13 days (100=total damage to plant; 0=no damage), read-out: Percentage damage caused to weed species, ALOMY
[25] = post-emergence, 1,000 g/ha, evaluated after 13 days (100=total damage; 0=no damage), read-out: Percentage damage caused to weed species, SETFA
[26] = post-emergence, 1,000 g/ha, evaluated after 13 days (100=total damage; 0=no damage), read-out: Percentage damage caused to weed species, AMARE
[27] = post-emergence, 1,000 g/ha, evaluated after 13 days (100=total damage; 0=no damage), read-out: Percentage damage caused to weed species, SOLNI
[28] = post-emergence, 1,000 g/ha, evaluated after 13 days (100=total damage; 0=no damage), read-out: Percentage damage caused to weed species, ECHCG
[29] = post-emergence, 1,000 g/ha, evaluated after 13 days (100=total damage; 0=no damage), read-out: Percentage damage caused to weed species, IPOHE
[30] = post-emergence, 1,000 g/ha, evaluated after 13 days (100=total damage; 0=no damage), read-out: Percentage damage caused to weed species, ALOMY
[31] = pre-emergence, 1,000 g/ha, evaluated after 13 days (100=total damage; 0=no damage), read-out: Percentage damage SETFA
[32] = pre-emergence, 1,000 g/ha, evaluated after 13 days (100=total damage; 0=no damage), read-out: Percentage damage AMARE
[33] = pre-emergence, 1,000 g/ha, evaluated after 13 days (100=total damage; 0=no damage), read-out: Percentage damage SOLNI
[34] = pre-emergence, 1,000 g/ha, evaluated after 13 days (100=total damage; 0=no damage), read-out: Percentage damage ECHCG
[35] = pre-emergence, 1,000 g/ha, evaluated after 13 days (100=total damage; 0=no damage), read-out: Percentage damage IPOHE
[36] = pre-emergence, 1,000 g/ha, evaluated after 13 days (100=total damage; 0=no damage), read-out: Percentage damage ALOMY

SMILES	pest or weed control at 1000 g/ha (Setaria faberi (SETFA) [1]; [13]) [%]	pest or weed control at 1000 g/ha [2, 14] [%]	pest or weed control at 1000 g/ha (Solanum nigrum (SOLNI) [3]; [15]) [%]	pest or weed control at 1000 g/ha [4, 16] [%]	pest or weed control at 1000 g/ha [5, 17] [%]	pest or weed control at 1000 g/ha [6, 18] [%]	pest or weed control at 1000 g/ha (Setaria faberi (SETFA) [7]; [19]) [%]	pest or weed control at 1000 g/ha [8, 20] [%]	pest or weed control at 1000 g/ha (Setaria faberi (SETFA) [1]; [25]) [%]	pest or weed control at 1000 g/ha [2, 26] [%]	pest or weed control at 1000 g/ha (Solanum nigrum (SOLNI) [3]; [27]) [%]	pest or weed control at 1000 g/ha [4, 28] [%]	pest or weed control at 1000 g/ha [5, 29] [%]	pest or weed control at 1000 g/ha [6, 30] [%]	pest or weed control at 1000 g/ha (Setaria faberi (SETFA) [7]; [31]) [%]	pest or weed control at 1000 g/ha [8, 32] [%]	pest or weed control at 1000 g/ha (Solanum nigrum (SOLNI) [9]; [33]) [%]	pest or weed control at 1000 g/ha [10, 34] [%]	pest or weed control at 1000 g/ha [11, 35] [%]	pest or weed control at 1000 g/ha [12, 36] [%]	other results
COC(=O)c1nc(-c2ccc(Cl)c(F)c2)nc(NCc2ccco2)c1Cl [Compound 222-48, 5-Chloro-2-(4-chloro-3-fluorophenyl)-4-(furan-2-ylmethyl-amino)-6-methoxycarbonyl-pyrimidine]	40	100	90	40	80	30	20	100													pest or weed control at 1000 g/ha (Solanum nigrum (SOLNI) [9]; [21]): 100%; pest or weed control at 1000 g/ha [10, 22]: 50%; pest or weed control at 1000 g/ha [11, 23]: 70%; pest or weed control at 1000 g/ha [12, 24]: 30%
O=C(NCc1ccccc1)c1nc(C2CC2)nc(NCc2ccccc2)c1Cl [Compound 265-1, 5-chloro-2-cyclopropyl-4-phenylmethylamino-6-phenylmethylaminocarbonyl pyrimidine]	0	80	50	0	70	10	0	30													pest or weed control at 1000 g/ha (Solanum nigrum (SOLNI) [9]; [21]): 10%; pest or weed control at 1000 g/ha [10, 22]: 0%; pest or weed control at 1000 g/ha [11, 23]: 0%; pest or weed control at 1000 g/ha [12, 24]: 0%
COC(=O)c1nc(C2CC2)nc(NCc2ncccc2C)c1Cl [Compound 4-153, 5-Chloro-2-cyclopropyl-6-methoxycarbonyl-4-(3-methylpyrid-2-ylmethylamino)-pyrimidine]									90	100	100	80	100	70	60	100	100	60	100	50	
COC(=O)c1nc(C2CC2)nc(NCCN2CCOCC2)c1Cl [Compound 4-220, 5-Chloro-2-cyclopropyl-6-methoxycarbonyl-4-[2-(morpholin-4-yl)ethylamino]-pyrimidine]									40	100	90	30	100	20	0	60	40	30	50	0	
COC(=O)c1nc(C2CC2)nc(NCC(F)c2cccc(C(F)(F)F)c2)c1Cl (stereo not drawn) [Compound 4-237, 5-Chloro-2-cyclopropyl-4-[2-fluoro-2-(3-trifluoromethyl-phenyl)ethylamino]-6-methoxy-carbonylpyrimidine]									40	100	70	30	60	0	0	30	0	0	10	0	
COC(=O)c1nc(C2CC2)nc(N[C@@H]2c3ccccc3C[C@@H]2O)c1Cl [4-37 (1R,2S), 5-Chloro-2-cyclopropyl-4-[(1R, 2S)-2-hydroxy-indan-1-ylamino]-6-methoxycarbonyl-pyrimidine]									70	100	100	60	100	30	80	100	100	60	100	50	
CCOC(=O)CCN(Cc1ccccc1)c1nc(C2CC2)nc(C(=O)OC)c1Cl [Compound 162-60, 5-Chloro-2-cyclopropyl-4-[N-(2-ethoxycarbonyl-ethyl)-N-phenylmethyl-amino]-6-methoxycarbonyl-pyrimidine]	0	80	60	0	70	10	0	40													pest or weed control at 1000 g/ha (Solanum nigrum (SOLNI) [9]; [21]): 20%; pest or weed control at 1000 g/ha [10, 22]: 20%; pest or weed control at 1000 g/ha [11, 23]: 70%; pest or weed control at 1000 g/ha [12, 24]: 10%
COC(=O)c1nc(-c2ccc(Cl)c(C#N)c2)nc(NCc2ccco2)c1Cl [Compound 221-48, 5-Chloro-2-(4-chloro-3-cyanophenyl)-4-(furan-2-yl-methyl-amino)-6-methoxy-carbonylpyrimidine]	30	80	80	30	40	10	0	60													pest or weed control at 1000 g/ha (Solanum nigrum (SOLNI) [9]; [21]): 0%; pest or weed control at 1000 g/ha [10, 22]: 0%; pest or weed control at 1000 g/ha [11, 23]: 0%; pest or weed control at 1000 g/ha [12, 24]: 0%
COC(=O)c1nc(C2CC2)nc(NCC2CCN(OC(=O)C(C)(C)C)CC2)c1Cl [Compound 4-58]									50	70	70	40	50	0	0	80	30	0	20	0	
